Results from patent US20260102418A1, “An anti-influenza virus derivative and uses thereof” (Shijiazhuang Discovery Medicine Technology Co., Ltd., priority 2022, published 2026).

System: A/Weiss/43 (H1N1) oseltamivir-resistant strain
Experiment: Antiviral CPE assay in MDCK, other influenza strains
Assay type: cell-based, influenza A virus (IAV)
Details: Influenza A virus

Compound	EC50 [nM]
COC(=O)OCOc1c2n(ccc1=O)N([C@@H]1c3ccccc3SCc3c1ccc(F)c3F)[C@@H]1COC3(CC3)CN1C2=O [Compound M42, reference compound]	2.11 ± 0.72
[2H]C([2H])([2H])OC(=O)OCOc1c2n(ccc1=O)N([C@@H]1c3ccccc3[Se]Cc3c1ccc(F)c3F)[C@@H]1COC3(CC3)CN1C2=O [DS1833]	1.16 ± 0.37
[2H]C([2H])([2H])OC(=O)OCOc1c2n(ccc1=O)N([C@@H]1c3ccccc3SCc3c1ccc(F)c3F)[C@@H]1COC3(CC3)CN1C2=O [DS1837]	1.45 ± 0.55
O=C1c2c(OCOP(=O)(O)O)c(=O)ccn2N([C@@H]2c3ccccc3[Se]Cc3c2ccc(F)c3F)[C@@H]2COC3(CC3)CN12 [DS14915]	1.33 ± 0.22
NC(=O)c1ncn([C@@H]2O[C@H](CO)[C@@H](O)[C@H]2O)n1 [Ribavirin, reference compound]	30300 ± 4080
